Like-named read-outs stand apart in the source and are kept apart here.
What was measured:
[1] = tested on: HIV-infected U937; conditions: liposomal, range over the compounds named, read-out: IC50, antiretroviral activity; cited from earlier work
[2] = tested on: HIV-infected CEM cells; conditions: liposomal, range over the compounds named, read-out: IC50, antiretroviral activity; cited from earlier work
[3] = in vivo; parameters: species or system Female NIH-Swiss mice; conditions: mouse, ip, 100 mg/kg
Description: FIG. 7. Mouse serum concentration of AZT following administration of AZT or AZTDP-DL-PTBA Female NIH-Swiss mice weighing 25-30 g were administered i.p. with AZT (100 mg/kg) or AZTDP-DL-PTBA (394 mg/kg, equivalent to 100 mg/kg AZT). Three mice were sacrificed at the designated time (up to 24 hr) and AZT in the serum was analyzed by a HPLC method.
Female NIH-Swiss mice weighing 25-30 g were administered intraperitoneally (i.p.) with 394 mg/kg of AZTDP-DL-PTBA (equivalent to 100 mg/kg AZT). Three mice were sacrificed at the designated time (up to 24 hours) and AZT in the serum was analyzed by an HPLC method. […] The intact conjugate level in the serum was unable to be checked by the HPLC method.

[4] = tested on: HIV-1; assay: microbe, parasite or virus in culture; format: cell-based; conditions: for Conclusion: NCI screen conclusion, Tables 1-4; for conclusion / reported as anti-HIV drug: NCI screening results
Text: (§1) FIG. 3. Anti-HIV activity of AZTDP-DL-PTBA from the National Cancer Institute Developmental Therapeutics Program In-Vitro Testing Results; NSC 648540-S/1; Plate 5440; Lab 9N; SSPL:129N; Primary Screen Assay; Test Date, Jan. 21, 1992; Solubility Ind.: 1; Report Date, Apr. 27, 1992; Cell Line, CEM-IW; Solvent: Saline<0.9% (MEDIA).
as §1, with “4.” for “3.”, “AZddUDP-DL-PTBA” for “AZTDP-DL-PTBA”, “NSC: 648541-T/1;” for “NSC 648540-S/1;”, “5466;” for “5440;”, “SSPL: 129N;” for “SSPL:129N;”, “Line:” for “Line,”
(§2) FIG. 5. Anti-HIV activity of ddCDP-DL-PTBA from the National Cancer Institute Developmental Therapeutic Program In-Vitro Testing Results; NSC: D- 652872-A/1; Plate 24; Lab 9N; Primary Screen Assay; Test Date, Jul. 23, 1992; Solubility Ind.: 1; Report Date: Aug. 7, 1992; Cell Line: CEM-IW; Solvent: Saline<0.9% (MEDIA).
(§3) FIG. 6. Anti-HIV activity of AZTDP-DL-PMA from the National Cancer Institute Developmental Therapeutics Program In-Vitro Testing Results; NSC: D- 652873-C/1; Plate 24; Lab 9N; SSPL: 129N; Primary Screen Assay; Test Date, Jul. 23, 1992; Solubility Ind.: 1; Report Date, Sep. 11, 1992; Cell Line: CEM-IW; Solvent: Saline<0.9% (MEDIA).
Anti-HIV evaluation for the compounds was performed at the National Cancer Institute, National Institute of Health and is presented in FIGS. 3-6.
(§4) The procedure is designed to detect agents acting at any stage of the virus reproductive cycle (Weislow, et al., J. Natl. Cancer Inst. 81, 577, 1989). The assay basically involves the killing of T4 lymphocytes by HIV. Small amounts of HIV are added to cells, and a complete cycle of virus reproduction is necessary to obtain the required cell killing. Agents that interact with virions, cells, or virus gene-products to interfere with viral activities will protect cells from cytolysis. Compounds that degenerate or are rapidly metabolized in the culture conditions may not show activity in this screen. All tests are compared with at least one positive (e.g., AZT-treated) control done at the same time under identical conditions.
(§5) Compound was dissolved in DMSO then diluted 1:100 in cell culture medium before preparing serial half-log10 dilutions. T4 lymphocytes (CEM cell line) were added and after a brief interval HIV-1 was added, resulting in a 1:200 final dilution of the compound. Uninfected cells with the compound served as a toxicity control, and infected and uninfected without the compound served as basic controls. Cultures were incubated at 37° C. in a 5% CO2 atmosphere for 6 days. The tetrazolium salt, XTT, was added to the wells, and cultures were incubated to allow formazan color development by viable cells. Individual wells were analyzed spectrophotometrically to quantitate formazan production, and in addition were viewed microscopically for detection of viable cells and confirmation of protective activity. Drug-treated virus-infected cells were compared with drug-treated noninfected cells and with other appropriate controls (untreated infected and untreated noninfected cells, drug-containing wells without cells, etc.) on the same plate. Data were reviewed in comparison with other tests done at the same time and a determination about activity was made.

[5] = Cytotoxicity to uninfected CEM cells (toxicity control of the anti-HIV assay); format: cell-based; conditions: human; for CC50: CEM cells, read-out: cytotoxicity (IC50); for CC50 at 144 h: uninfected CEM-IW cells, 6 days, XTT, Tables 1-4, read-out: 1C50(Molar) (cytotoxicity)
Text: as §1
as §1, with “4.” for “3.”, “AZddUDP-DL-PTBA” for “AZTDP-DL-PTBA”, “NSC: 648541-T/1;” for “NSC 648540-S/1;”, “5466;” for “5440;”, “SSPL: 129N;” for “SSPL:129N;”, “Line:” for “Line,”
as §2, §3, §4, §5

[6] = tested on: HIV-1; conditions: cited from earlier work
[7] = Human immunodeficiency virus 1, CCRF-CEM, 144 h, read-out: EC50(Molar)
[8] = Human immunodeficiency virus 1, CCRF-CEM, read-out: 50% of the protection (EC50)

In the case of AZT dipalmitoylglycerol, the IC50 [1] is listed as 0.2 to 12 µM and the IC50 [2] is listed as 1.7 to 22 µM.

For `CCCCCCCCCCCCCC(=O)OCC(COP(=O)(O)OC[C@@H]1CC[C@H](n2ccc(N)nc2=O)O1)OC(=O)CCCCCCCCCCCCC` (stereo partly shown) [dimyristoylphosphatidylddC], the IC50 [1] is listed as 0.2 to 12 µM and the IC50 [2] is listed as 1.7 to 22 µM.

With `Cc1cn([C@H]2C[C@H](N=[N+]=[N-])[C@@H](CO)O2)c(=O)[nH]c1=O` [AZT, 3'-azido-3'-deoxythymidine, reference compound] the half-life [3] was 18.6 min.

`CCCCCCCCCCCCCCCCCCSCC(COP(=O)(O)OP(=O)(O)OC[C@@H]1CC[C@H](n2ccc(N)nc2=O)O1)OC(=O)CCCCCCCCCCCCCCC` (mixture of isomers) [ddCDP-DL-PTBA, 2',3'-Dideoxycytidine-5'-diphosphate-rac-1-S-octadecyl-2-O-palmitoyl-1-thioglycerol] gave an EC50 [4, 7] of 130 µM, an EC50 [4, 8] of 130 µM and a viability at 200 µM ([4]; Human immunodeficiency virus 1, CCRF-CEM, dose 2.00 × 10^-4 Molar (Table 3), read-out: INFECTED RESPONSE Percent of Control) of 78%. The viability at 630 µM ([4]; Human immunodeficiency virus 1, CCRF-CEM, dose 6.30 × 10^-4 Molar (Table 3), read-out: INFECTED RESPONSE Percent of Control) was 98.7%, the viability at 63 µM ([4]; Human immunodeficiency virus 1, CCRF-CEM, dose 6.30 × 10^-5 Molar (Table 3), read-out: INFECTED RESPONSE Percent of Control) was 10.2% and the Conclusion [4] was “CONFIRMED ACTIVE”. The “conclusion / reported as anti-HIV drug” value [4] was “moderate”, the “TI50(IC/EC)” value ([4]; ratio IC50/EC50, Tables 2-3) was 2.10 × 10^+1 and the viability at 200 µM ([5]; uninfected cem cells, dose 2.00 × 10^-4 Molar (Table 3), read-out: UNINFECTED RESPONSE Percent of Control) was 137%. The viability at 630 µM ([5]; uninfected cem cells, dose 6.30 × 10^-4 Molar (Table 3), read-out: UNINFECTED RESPONSE Percent of Control) was 125%, the viability at 63 µM ([5]; uninfected cem cells, dose 6.30 × 10^-5 Molar (Table 3), read-out: UNINFECTED RESPONSE Percent of Control) was 130% and the CC50 [5] was 2.8 mM. It also gave a CC50 at 144 h [5] of 2.8 mM.

With `CCCCCCCCCCCCCCCCCCSCC(COP(=O)(O)OP(=O)(O)OC[C@H]1O[C@@H](n2ccc(=O)[nH]c2=O)C[C@@H]1N=[N+]=[N-])OC(=O)CCCCCCCCCCCCCCC` (mixture of isomers) [AZddUDP-DL-PTBA, 3'-Azido-2',3'-dideoxyuridine-5'-diphosphate-rac-1-S-octadecyl-2-O-palmitoyl-1-thioglycerol] the EC50 [4, 7] was 59 µM, the EC50 [4, 8] was 59 µM and the viability at 180 µM ([4]; Human immunodeficiency virus 1, CCRF-CEM, dose 1.80 × 10^-4 Molar (Tables 1, 2), read-out: INFECTED RESPONSE Percent of Control) was 103%. The viability at 18 µM ([4]; Human immunodeficiency virus 1, CCRF-CEM, dose 1.80 × 10^-5 Molar (Tables 1, 2), read-out: INFECTED RESPONSE Percent of Control) was 11.1%, the viability at 1.8 µM ([4]; Human immunodeficiency virus 1, CCRF-CEM, dose 1.80 × 10^-6 Molar (Tables 1, 2), read-out: INFECTED RESPONSE Percent of Control) was 4.68% and the viability at 580 µM ([4]; Human immunodeficiency virus 1, CCRF-CEM, dose 5.80 × 10^-4 Molar (Tables 1, 2), read-out: INFECTED RESPONSE Percent of Control) was 7.96%. The viability at 58 µM ([4]; Human immunodeficiency virus 1, CCRF-CEM, dose 5.80 × 10^-5 Molar (Tables 1, 2), read-out: INFECTED RESPONSE Percent of Control) was 50.6%, the viability at 5.8 µM ([4]; Human immunodeficiency virus 1, CCRF-CEM, dose 5.80 × 10^-6 Molar (Tables 1, 2), read-out: INFECTED RESPONSE Percent of Control) was 6.2% and the viability at 0.58 µM ([4]; Human immunodeficiency virus 1, CCRF-CEM, dose 5.80 × 10^-7 Molar (Tables 1, 2), read-out: INFECTED RESPONSE Percent of Control) was 2.69%. The Conclusion [4] was “CONFIRMED ACTIVE”, the “conclusion / reported as anti-HIV drug” value [4] was “moderate” and the viability at 180 µM ([5]; uninfected cem cells, dose 1.80 × 10^-4 Molar (Tables 1, 2), read-out: UNINFECTED RESPONSE Percent of Control) was 138%. It also gave a viability at 18 µM ([5]; uninfected cem cells, dose 1.80 × 10^-5 Molar (Tables 1, 2), read-out: UNINFECTED RESPONSE Percent of Control) of 98.6%, a viability at 1.8 µM ([5]; uninfected cem cells, dose 1.80 × 10^-6 Molar (Tables 1, 2), read-out: UNINFECTED RESPONSE Percent of Control) of 96.6% and a viability at 580 µM ([5]; uninfected cem cells, dose 5.80 × 10^-4 Molar (Tables 1, 2), read-out: UNINFECTED RESPONSE Percent of Control) of 5.01%. It also gave a viability at 58 µM ([5]; uninfected cem cells, dose 5.80 × 10^-5 Molar (Tables 1, 2), read-out: UNINFECTED RESPONSE Percent of Control) of 107%, a viability at 5.8 µM ([5]; uninfected cem cells, dose 5.80 × 10^-6 Molar (Tables 1, 2), read-out: UNINFECTED RESPONSE Percent of Control) of 94.6% and a viability at 0.58 µM ([5]; uninfected cem cells, dose 5.80 × 10^-7 Molar (Tables 1, 2), read-out: UNINFECTED RESPONSE Percent of Control) of 94.6%. For the same compound, the CC50 [5] was 0.39 mM and the CC50 at 144 h [5] was 0.59 mM.

Work on `CCCCCCCCCCCCCCCC(=O)OC(COCCCCCCCCCCCCCC)COP(=O)(O)OP(=O)(O)OC[C@H]1O[C@@H](n2cc(C)c(=O)[nH]c2=O)C[C@@H]1N=[N+]=[N-]` (mixture of isomers) [AZTDP-DL-PMA, 3'-Azido-3'-deoxythymidine-5'-diphosphate-rac-1-O-tetradecyl-2-O-palmitoylglycerol] yielded an EC50 [4, 8] of 57 µM, a viability at 180 µM ([4]; Human immunodeficiency virus 1, CCRF-CEM, dose 1.80 × 10^-4 Molar (Table 4), read-out: INFECTED RESPONSE Percent of Control) of 66.8% and a viability at 570 µM ([4]; Human immunodeficiency virus 1, CCRF-CEM, dose 5.70 × 10^-4 Molar (Table 4), read-out: INFECTED RESPONSE Percent of Control) of 90.7%. The viability at 57 µM ([4]; Human immunodeficiency virus 1, CCRF-CEM, dose 5.70 × 10^-5 Molar (Table 4), read-out: INFECTED RESPONSE Percent of Control) was 55.8%, the Conclusion [4] was “CONFIRMED ACTIVE” and the “conclusion / reported as anti-HIV drug” value [4] was “moderate”. It also gave a viability at 180 µM ([5]; uninfected cem cells, dose 1.80 × 10^-4 Molar (Table 4), read-out: UNINFECTED RESPONSE Percent of Control) of 109%, a viability at 570 µM ([5]; uninfected cem cells, dose 5.70 × 10^-4 Molar (Table 4), read-out: UNINFECTED RESPONSE Percent of Control) of 109% and a viability at 57 µM ([5]; uninfected cem cells, dose 5.70 × 10^-5 Molar (Table 4), read-out: UNINFECTED RESPONSE Percent of Control) of 114%. For the same compound, the CC50 [5] was 14 mM and the CC50 at 144 h [5] was 14 mM.

In the case of `CCCCCCCCCCCCCC(=O)OCC(COP(=O)(O)OC[C@@H]1CC[C@H](n2cc(C)c(=O)[nH]c2=O)O1)OC(=O)CCCCCCCCCCCCC` (stereo partly shown) [dimyristoylphosphatidylddT], the IC50 [1] is listed as 0.2 to 12 µM and the IC50 [2] is listed as 1.7 to 22 µM.

In the case of `COCCCCCCCCCCCC(=O)O` [13-Oxamyristic acid, 12-methoxydodecanoic acid], the “effectiveness among myristate analogs” value [6] is given as “the most effective” and the “reverse transcriptase activity, p24 levels, and syncytia formation” value [6] is given as “concentration-dependent decrease in reverse transcriptase activity, p24 levels, and syncytia formation”.

For `CCCCCCCCCCCCCC(=O)OCC(COP(=O)(O)OC[C@H]1O[C@@H](n2cc(C)c(=O)[nH]c2=O)C[C@@H]1N=[N+]=[N-])OC(=O)CCCCCCCCCCCCC` (stereo partly shown) [Dimyristoyl-phosphatidylAZT], the IC50 [1] is given as 0.2 to 12 µM and the IC50 [2] is given as 1.7 to 22 µM.
